Laboratory results: patent US9428487B2, “Heteroaromatic amides and thioamides as pesticides” (Bayer Intellectual Property GmbH, priority 2008, dated 2016)
Like-named read-outs stand apart in the source and are kept apart here.

Experiments:
[1] = Determination of log P values by HPLC on reversed-phase column (formic acid method); type: physicochemical; settings: reversed-phase C 18, acidic range (pH 3.4), formic acid eluents, 55° C., read-out: logP (HCOOH)
Description: 1) Description of Method for Determining the Log P Values (Formic Acid Method)
The log P values reported in the table were determined according to EEC-Directive 79/831 Annex V.A8 by HPLC (High Performance Liquid Chromatography) on a reversed-phase column (C 18). […]
Eluent A: acetonitrile+1 ml of formic acid/liter. Eluent B: water+0.9 ml of formic acid/liter.
Gradient: from 10% eluent A/90% eluent B to 95% eluent A/5% eluent B in 4.25 min
The calibration was effected with unbranched alkan-2-ones (with 3 to 16 carbon atoms), whose log P values are known (determination of the log P values on the basis of the retention times by linear interpolation between two successive alkanones). The lambda-max values were determined with reference to the UV spectra from 200 nm to 400 nm in the maxima of the chromatographic signals.

[2] = test system: green peach aphid (Myzus persicae); assay: Myzus test; type: in vivo; settings: read-out: efficacy (aphids killed)
Description: • Solvent: 78.0 parts by weight of acetone • 1.5 parts by weight of dimethylformamide • Emulsifier: 0.5 part by weight of alkylaryl polyglycol ether
To produce an appropriate active ingredient formulation, 1 part by weight of active ingredient is mixed with the amounts of solvent and emulsifier specified and the concentrate is diluted to the desired concentration with emulsifier-containing water.
Chinese cabbage leaf slices (Brassica pekinensis) infested by all stages of the green peach aphid (Myzus persicae) are sprayed with an active ingredient formulation of the desired concentration.
After the desired time, the efficacy in % is determined 100% means that all aphids have been killed; 0% means that no aphids have been killed.

[3] = reversed-phase HPLC column (C 18), pH 3.4, HPLC
[4] = application rate 500 g/ha, spray on Chinese cabbage leaf slices

Row | SMILES | chromatographic logP ([1]; HPLC) | pest or weed control at 500 g/ha ([2]; in Brassica rapa) | chromatographic logP [1, 3] | pest or weed control at 500 g/ha [2, 4]
1 | C#CCOC(=O)N(CC(F)(F)F)C(=O)c1sc(-c2cccnc2)nc1C [Compound 117] | 2.63 | ≥ 70% | – | –
2 | Cc1nc(-c2cccnc2)sc1C(=O)NC1(C#N)CC1 [Compound 66] | – | – | 1.2 | ≥ 70%
3 | Cc1nc(-c2cccnc2)sc1C(=O)N(C)CCF [Compound 85] | – | – | 1.23 | ≥ 70%
4 | Cc1nc(-c2cccnc2)sc1C(=O)NCc1ccccn1 [Compound 90] | – | – | 0.78 | ≥ 70%
5 | Cc1nc(-c2cccnc2)sc1C(=O)NCc1ncccn1 [Compound 40] | – | – | 1.05 | ≥ 70%
6 | CCOC(CNC(=O)c1sc(-c2cccnc2)nc1C)OCC [Compound 108] | – | – | 1.78 | ≥ 70%
7 | Cc1nc(-c2cccnc2)sc1C(=O)NC(C)C1=NOCCO1 (centres unmarked) [Compound 49] | – | – | 1.27 | ≥ 70%
8 | CCc1nccc(CNC(=O)c2cnc(-c3cccnc3)s2)n1 [Compound 176] | – | – | 1.19 | ≥ 70%
9 | Cc1nc(-c2cccnc2)sc1C(=O)N(C)CC(=O)N(C)C [Compound 133] | – | – | 0.8 | ≥ 70%
10 | Cc1nc(-c2cccnc2)sc1C(=O)NCCC#N [Compound 150] | – | – | 1.19 | ≥ 70%
11 | CC(c1ccccn1)N(C)C(=O)c1cnc(-c2cccnc2)s1 (centres unmarked) [Compound 154] | – | – | 1.21 | ≥ 70%
12 | CSCCNC(=O)c1sc(-c2cccnc2)nc1C [Compound 44] | – | – | 1.54 | ≥ 70%
13 | C=CC[n+]1cccc(-c2nc(C)c(C(=O)NCC(F)(F)F)s2)c1 [Compound 122] | – | – | 1.13 | ≥ 70%
14 | Cc1nc(-c2cccnc2)sc1C(=O)NN1CCOC1=O [Compound 204] | – | – | 1.11 | ≥ 70%
15 | Cc1nc(-c2cccnc2)sc1C(=O)NC(C)(C#N)C1CCCO1 (centres unmarked) [Compound 157] | – | – | 1.69 | ≥ 70%
16 | Cc1nc(-c2cccnc2)sc1C(=O)NC(C)CF (centres unmarked) [Compound 97] | – | – | 1.42 | ≥ 70%
17 | Cc1nc(C)n(C(C)CNC(=O)c2sc(-c3cccnc3)nc2C)n1 (centres unmarked) [Compound 165] | – | – | 1.06 | ≥ 70%
18 | Cc1nc(-c2cccnc2)sc1C(=O)NCC(F)(F)Br [Compound 121] | – | – | 1.98 | ≥ 70%
19 | Cc1nc(-c2cccnc2)sc1C(=O)N(C)CC(C)F (centres unmarked) [Compound 80] | – | – | 1.5 | ≥ 70%
20 | CCOC1(NC(=O)c2sc(-c3cccnc3)nc2C)CC1 [Compound 144] | – | – | 1.45 | ≥ 70%
21 | Cc1nc(-c2cccnc2)sc1C(=O)N(C)CC(C)(F)F [Compound 35] | – | – | 1.65 | ≥ 70%

Row | SMILES | chromatographic logP ([1]; HPLC) | pest or weed control at 500 g/ha ([2]; in Brassica rapa) | chromatographic logP [1, 3] | pest or weed control at 500 g/ha [2, 4]
22 | Cc1nc(-c2cccnc2)sc1C(=O)NCc1ccc(Cl)nc1 [Compound 115] | – | – | 1.71 | ≥ 70%
23 | Cc1nc(-c2cccnc2)sc1C(=O)NC(C)(C#N)C1CC1 (centres unmarked) [Compound 94] | – | – | 1.76 | ≥ 70%
24 | Cc1nc(-c2cccnc2)sc1C(=O)NCC1COCCO1 (centres unmarked) [Compound 50] | – | – | 0.8 | ≥ 70%
25 | Cc1nc(-c2cccnc2)sc1C(=O)N(CC#N)C(C)C [Compound 142] | – | – | 1.56 | ≥ 70%
26 | CN(CC(F)(F)F)C(=O)c1cc(-c2cccnc2)nn1C [Compound 30] | – | – | 1.09 | ≥ 70%
27 | Cc1nc(-c2cccnc2)sc1C(=O)NCC(F)(F)C(F)(F)F [Compound 189] | – | – | 2.13 | ≥ 70%
28 | O=C(NCC(F)(F)F)c1cc(-c2cccnc2)n[nH]1 [Compound 33] | – | – | 0.72 | ≥ 70%
29 | Cc1nc(-c2cccnc2)sc1C(=O)NCC(F)F [Compound 57] | – | – | 1.34 | ≥ 70%
30 | Cc1nc(-c2cccnc2)sc1C(=O)NC1CCCC(C(F)(F)F)C1 (centres unmarked) [Compound 149] | – | – | 2.48 | ≥ 70%
31 | Cc1nc(-c2cncc(F)c2)sc1C(=O)NCc1ncccn1 [Compound 10] | – | – | 1.39 | ≥ 70%
32 | Cc1nc(-c2cccnc2)sc1C(=O)NCC1OCC(CCl)O1 (centres unmarked) [Compound 132] | – | – | 1.51 | ≥ 70%
33 | O=C(NCc1ncccn1)c1cnc(-c2cccnc2)s1 [Compound 112] | – | – | 0.81 | ≥ 70%
34 | CSC[C@H](C)NC(=O)c1cnc(-c2cccnc2)s1 [Compound 191] | – | – | 1.53 | ≥ 70%
35 | CCON(C)C(=O)c1cnc(-c2cccnc2)s1 [Compound 173] | – | – | 1.5 | ≥ 70%
36 | CCC1(CC)NC(=O)N(NC(=O)c2sc(-c3cccnc3)nc2C)C1=O [Compound 199] | – | – | 1.44 | ≥ 70%
37 | Cc1nc(-c2cccnc2)sc1C(=O)N(C)Cc1ccccn1 [Compound 93] | – | – | 1.19 | ≥ 70%
38 | COC(CNC(=O)c1sc(-c2cccnc2)nc1C)OC [Compound 101] | – | – | 1.33 | ≥ 70%
39 | CCN(OC)C(=O)c1cnc(-c2cccnc2)s1 [Compound 183] | – | – | 1.53 | ≥ 70%
40 | Cc1nc(-c2cccnc2)sc1C(=O)N(C)Cc1ncccn1 [Compound 91] | – | – | 1.02 | ≥ 70%
41 | Cc1nc(-c2cccnc2)sc1C(=O)NCC(Cl)(Cl)Cl [Compound 100] | – | – | 2.17 | ≥ 70%
42 | Cc1nc(-c2cccnc2)sc1C(=O)NN1CCOCC1 [Compound 203] | – | – | 1.23 | ≥ 70%

Row | SMILES | chromatographic logP ([1]; HPLC) | pest or weed control at 500 g/ha ([2]; in Brassica rapa) | chromatographic logP [1, 3] | pest or weed control at 500 g/ha [2, 4]
43 | CCN(CC)C(=O)c1cnc(-c2cccnc2)s1 [Compound 67] | – | – | 1.46 | ≥ 70%
44 | CCOC(=O)CN(OC)C(=O)c1cnc(-c2cccnc2)s1 [Compound 178] | – | – | 1.65 | ≥ 70%
45 | CN(Cc1ncccn1)C(=O)c1cnc(-c2cccnc2)s1 [Compound 102] | – | – | 1.3 | ≥ 70%
46 | Cc1cc(C)nc(CNC(=O)c2cnc(-c3cccnc3)s2)n1 [Preparation Example 3] | – | ≥ 70% | 1.19 | –
47 | CCC(=O)N(CC(F)(F)F)C(=O)c1sc(-c2cccnc2)nc1C [Compound 89] | – | – | 2.61 | ≥ 70%
48 | Cc1nc(-c2cccnc2)sc1C(=O)NCC1CCCO1 (centres unmarked) [Compound 103] | – | – | 1.4 | ≥ 70%
49 | Cc1nc(-c2cccnc2)sc1C(=O)N(C)CCC#N [Compound 163] | – | – | 1.1 | ≥ 70%
50 | Cc1nc(-c2cccnc2)sc1C(=O)NC(C)c1nn(C)c(=O)n1C (centres unmarked) [Compound 151] | – | – | 1.01 | ≥ 70%
51 | Cc1cnc(CNC(=O)c2sc(-c3cccnc3)nc2C)cn1 [Compound 77] | – | – | 1.15 | ≥ 70%
52 | Cc1nc(-c2cccnc2)sc1C(=O)NCC(C)Cl (centres unmarked) [Compound 125] | – | – | 1.69 | ≥ 70%
53 | CC#CCN(CC(F)(F)F)C(=O)c1sc(-c2cccnc2)nc1C [Compound 139] | – | – | 2.47 | ≥ 70%
54 | CCCC(NC(=O)c1sc(-c2cccnc2)nc1C)C(F)(F)F (centres unmarked) [Compound 181] | – | – | 2.58 | ≥ 70%
55 | Cc1nc(-c2cccnc2)sc1C(=O)N(C)C(C)(C)C#N [Compound 47] | – | – | 1.41 | ≥ 70%
56 | Cc1nc(-c2cccnc2)sc1C(=O)NCC1CCCCC1 [Compound 153] | – | – | 2.43 | ≥ 70%
57 | Cc1nc(-c2cccnc2)sc1C(=O)NCC(F)(F)Cl [Preparation Example 1, N-(2-chloro-2,2-difluoroethyl)-4-methyl-2-pyridin-3-ylthiazole-5-carboxamide] | – | ≥ 70% | 1.84 | –
58 | Cc1nc(CN(C)C(=O)c2cnc(-c3cccnc3)s2)c(C)o1 [Compound 166] | – | – | 1.44 | ≥ 70%
59 | CCOC(=O)N(C)NC(=O)c1sc(-c2cccnc2)nc1C [Compound 197] | 1.48 | – | – | ≥ 70%
60 | COC(=O)N(C)NC(=O)c1sc(-c2cccnc2)nc1C [Compound 196] | 1.23 | – | – | ≥ 70%
61 | COC(OC)C(C)NC(=O)c1sc(-c2cccnc2)nc1C (centres unmarked) [Compound 65] | – | – | 1.45 | ≥ 70%
